# Reference: ChEMBL document CHEMBL1201862, “PubChem BioAssay data set” (2004)
#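 Growth conditions: 96-well plates. Treatment: test compound, 48 hours, 5 concentrations. Analysis: linear interpolation between bracketing concentrations; unreached endpoints set to highest concentration. GI50 = concentration required for 50% inhibition of growth.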 The source made the active and inactive calls. Cut-off read from the data, not from the text of the source: active = GI50 up to about 1.1 µM and inactive = higher. Where a SMILES comes first, the peptide text is derived from it. [ ]: non-standard residue; d: D form. The star is where a group is joined. ξ: configuration not given here. NMeF = CN[CH](Cc1ccccc1)C(=O)O; ξNMe2Val = CC(C)C(C(=O)*)N(C)C; NMeV = CN[CH](C(=O)O)C(C)C; OtBu = CC(C)(C)O*
# How the values were obtained:
# Test in all cases: NCI anticancer screen, dose series, 48 h
# A498 = tested on: A498
# A549 = tested on: A549
# HCT-15 = tested on: HCT-15
# HOP-62 = tested on: HOP-62
# IGROV-1 = tested on: IGROV-1
# K562 = tested on: K562
# M14 = tested on: M14
# NCI-H23 = tested on: NCI-H23
# OVCAR-3 = tested on: OVCAR-3
# OVCAR-4 = tested on: OVCAR-4
# SF-268 = tested on: SF-268
# SF-539 = tested on: SF-539
# SK-MEL-28 = tested on: SK-MEL-28
# SK-MEL-5 = tested on: SK-MEL-5
# SNB-19 = tested on: SNB-19
# SR = tested on: SR
# NCI-H522 = tested on: NCI-H522
Compound,GI50 (A498),GI50 (A549),GI50 (HCT-15),GI50 (HOP-62),GI50 (IGROV-1),GI50 (K562),GI50 (M14),GI50 (NCI-H23),GI50 (OVCAR-3),GI50 (OVCAR-4),GI50 (SF-268),GI50 (SF-539),GI50 (SK-MEL-28),GI50 (SK-MEL-5),GI50 (SNB-19),GI50 (SR),GI50 (NCI-H522)
CCc1cc(Cc2cc(Cl)c(NC(=O)C(=O)C3NC(=O)NC3=O)c(CC)c2)cc(Cl)c1NC(=O)C(=O)C1NC(=O)NC1=O (stereo not drawn),> 100 µM (inactive),75 µM (inactive),17.3 µM,> 100 µM (inactive),> 100 µM (inactive),37.2 µM (inactive),48.5 µM (inactive),26.6 µM (inactive),36.8 µM (inactive),> 100 µM (inactive),20.7 µM (inactive),35.1 µM (inactive),37.5 µM (inactive),> 100 µM (inactive),36.9 µM (inactive),37.2 µM (inactive),
CC(=O)NC1=C(NCC(C)C)C(=O)c2ccccc2C1=O,83.2 µM (inactive),54.3 µM (inactive),17.7 µM,89.5 µM (inactive),43.5 µM (inactive),15.3 µM (inactive),18.2 µM (inactive),20 µM (inactive),16.6 µM (inactive),69.2 µM (inactive),20.5 µM (inactive),17.3 µM (inactive),17.1 µM (inactive),19.9 µM (inactive),38.3 µM (inactive),,
CC(C)N1CCC2(CC1)NNc1ncccc1-n1cccc12,,> 100 µM (inactive),> 10 µM,> 100 µM (inactive),,> 100 µM (inactive),> 100 µM (inactive),> 100 µM (inactive),> 100 µM (inactive),> 100 µM (inactive),> 100 µM (inactive),> 100 µM (inactive),> 100 µM (inactive),> 100 µM (inactive),> 100 µM (inactive),,> 100 µM (inactive)
CC(C)C(C(=O)N(C)C(Cc1ccccc1)C(=O)N(C)C(C(=O)N(C)C(C(=O)N1CCCC1C(=O)OC(C)(C)C)C(C)C)C(C)C)N(C)C (stereo not drawn) (ξNMe2Val-[NMeF][NMeV][NMeV]P-OtBu; configuration not given here),,71.1 µM (inactive),51.6 µM,64.4 µM (inactive),90.6 µM (inactive),31.6 µM (inactive),20 µM (inactive),94.6 µM (inactive),62.5 µM (inactive),,63 µM (inactive),26.1 µM (inactive),,18 µM (inactive),58.3 µM (inactive),25.4 µM (inactive),17.4 µM (inactive)
Cc1ccc(S(=O)(=O)N2CCCCC2CCO)cc1 (stereo not drawn),> 100 µM (inactive),> 100 µM (inactive),> 100 µM,> 100 µM (inactive),> 100 µM (inactive),> 100 µM (inactive),> 100 µM (inactive),> 100 µM (inactive),> 100 µM (inactive),> 100 µM (inactive),> 100 µM (inactive),> 100 µM (inactive),,> 100 µM (inactive),> 100 µM (inactive),> 100 µM (inactive),0.0342 µM (active)
COc1ccc(/C(Cl)=C(\c2ccc(OCCN(C)C)cc2)c2ccc(OC(=O)C(C)(C)C)cc2)cc1,,15 µM (inactive),10.6 µM,16.1 µM (inactive),17.7 µM (inactive),3.01 µM (inactive),3.58 µM (inactive),15.7 µM (inactive),15.2 µM (inactive),13.9 µM (inactive),13.7 µM (inactive),13.8 µM (inactive),11.1 µM (inactive),14 µM (inactive),16 µM (inactive),7.69 µM (inactive),14.8 µM (inactive)
CC[C@H]1CNC(=O)CC1CC(=O)OC (stereo partly drawn),> 100 µM (inactive),> 100 µM (inactive),> 100 µM,> 100 µM (inactive),> 100 µM (inactive),,> 100 µM (inactive),> 100 µM (inactive),,> 100 µM (inactive),> 100 µM (inactive),> 100 µM (inactive),> 100 µM (inactive),> 100 µM (inactive),> 100 µM (inactive),> 100 µM (inactive),> 100 µM (inactive)
COC(=O)C12C3C4C1C1C2C3C41I (stereo not drawn),> 100 µM (inactive),> 100 µM (inactive),> 100 µM,> 100 µM (inactive),> 100 µM (inactive),> 100 µM (inactive),> 100 µM (inactive),> 100 µM (inactive),> 100 µM (inactive),> 100 µM (inactive),> 100 µM (inactive),> 100 µM (inactive),> 100 µM (inactive),> 100 µM (inactive),> 100 µM (inactive),,
CCn1c(=O)c2ccccc2n2c(=O)c3cc4ccccc4cc3nc12,> 100 µM (inactive),> 100 µM (inactive),> 100 µM,96.8 µM (inactive),> 100 µM (inactive),> 100 µM (inactive),> 100 µM (inactive),> 100 µM (inactive),> 100 µM (inactive),,65.6 µM (inactive),62.7 µM (inactive),,63 µM (inactive),52.1 µM (inactive),,98.9 µM (inactive)
C[C@]12CC(C=O)C(=O)C(O)=C1CC[C@@H]1C2CC[C@@]2(C)C1CC[C@]2(C)O (stereo partly drawn),22.1 µM (inactive),57.4 µM (inactive),23 µM,22.1 µM (inactive),19.2 µM (inactive),25.9 µM (inactive),16.8 µM (inactive),21.7 µM (inactive),24.8 µM (inactive),13.2 µM (inactive),25.4 µM (inactive),18.5 µM (inactive),25.8 µM (inactive),17.6 µM (inactive),25.2 µM (inactive),,
ClC1c2ccccc2C2(c3ccccc3)OOC1(c1ccccc1)O2 (stereo not drawn),2.39 µM (inactive),1.86 µM (inactive),1.53 µM,10.3 µM (inactive),,1.38 µM (inactive),1.45 µM (inactive),1.8 µM (inactive),1.77 µM (inactive),1.48 µM (inactive),1.97 µM (inactive),2.31 µM (inactive),1.95 µM (inactive),1.51 µM (inactive),1.7 µM (inactive),1.32 µM (inactive),0.243 µM (active)
O=c1c2ccccc2nc(-c2ccccc2)n1NCC1(O)OCC(O)C(O)C1O (stereo not drawn),> 100 µM (inactive),81.3 µM (inactive),> 100 µM,> 100 µM (inactive),> 100 µM (inactive),> 100 µM (inactive),> 100 µM (inactive),> 100 µM (inactive),> 100 µM (inactive),> 100 µM (inactive),> 100 µM (inactive),> 100 µM (inactive),> 100 µM (inactive),48 µM (inactive),> 100 µM (inactive),,> 100 µM (inactive)
C1CCC(N=C2N(C3CCCCC3)C(=NC3CCCCC3)N2C2CCCCC2)CC1,> 10 µM (inactive),> 100 µM (inactive),> 100 µM,> 100 µM (inactive),> 100 µM (inactive),> 100 µM (inactive),> 100 µM (inactive),> 100 µM (inactive),> 100 µM (inactive),> 100 µM (inactive),> 100 µM (inactive),,> 100 µM (inactive),> 100 µM (inactive),> 100 µM (inactive),> 100 µM (inactive),> 100 µM (inactive)
